Tested on: bovine tubulin
Assay: In vitro tubulin polymerization assay (turbidity at 340 nm)
Format: biochemical
Details: 10 μM compound, 30 minute data point, vs 1% DMSO control
Protocol: Briefly, tubulin polymerization is a kinetic process that is temperature-dependent and requires GTP and was performed as follows. Soluble tubulin dimers polymerize into microtubules upon warming, and polymerization in vitro correlates with an increase in turbidity (measured at 340 nm). Lyophilized bovine tubulin (HTS Tubulin—97% tubulin, <3% MAPs—Cytoskeleton Inc.) was ressuspended in G-PEM buffer (80 mM PIPES pH 7, 1 mM EGTA, 1 mM MgCl2, 1 mM GTP, 5% glycerol) to a final concentration of 3 mg/ml and kept at 4° C. Compounds in 100× stock solutions in DMSO were dotted to pre-warmed 96-well plates (Corning Costar 3696), the plates were transferred to a 37° C. plate reader (SPECTRAmax Plus, Molecular Devices), cold tubulin was added to the wells, and the plates were shaken for mixing. The absorbance at 340 nm was determined at one minute intervals for 30 minutes. Kinetic curves with 30 points each were collected for each compound, and the dynamic range was between 0 and 0.4 OD units. The percentage inhibition values were calculated using the 30 minute data point and based on control samples (treated with 1% DMSO only). The assay is a modified version of the HTS kit sold by Cytoskeleton (1830 S. Acoma St., Denver, Colo.), adapted to maximize throughput and reduce time, without reduction in dynamic range or sensitivity, while retaining the ability to detect compounds that inhibit or enhance tubulin polymerization.
Tubulin polymerization is a kinetic process that is temperature-dependent and requires GTP. Soluble tubulin dimers polymerize into microtubules upon warming, and polymerization in vitro correlates with an increase in turbidity (measured at 340 nm). Liophilized bovine tubulin (HTS Tubulin—97% tubulin, <3% MAPs—Cytoskeleton Inc.) was ressuspended in G-PEM buffer (80 mM PIPES pH 7, 1 mM EGTA, 1 mM MgCl2, 1 mM GTP, 5% glycerol) to a final concentration of 3 mg/ml and kept at 4° C. Compounds in 100× stock solutions in DMSO were dotted to pre-warmed 96-well plates (Corning Costar 3696), the plates were immediately transferred to a 37° C. plate reader (SPECTRAmax Plus, Molecular Devices), cold tubulin was added to the wells, plates were shaken for mixing, and absorbance at 340 nm was read every minute for 30 minutes. Kinetic curves with 30 points each were collected for each compound, and the dynamic range was between 0 and 0.4 OD units. Percentage inhibition values were calculated using the 30 minute data point, based on control samples (treated with 1% DMSO only). This assay is a modified version of the HTS kit sold by Cytoskeleton, adapted to maximize throughput and reduce time, without reduction in dynamic range or sensitivity, while retaining the ability to detect compounds that inhibit or enhance tubulin polymerization.

| SMILES | Tubulin Assay: percent inhibition at 10 μM based on 30 minute data [%] |
| --- | --- |
| COc1ccc(Nc2nnc(-c3cccnc3Nc3ccc4cn[nH]c4c3)[nH]2)cc1 [Compound 19, (1H-Indazol-6-yl)-{3-[5-(4-methoxy-phenylamino)-4H-[1,2,4]triazol-3-yl]-pyridin-2-yl}-amine] | 20 |
| COc1ccc(Nc2nnc(-c3cccnc3Nc3ccc4cn[nH]c4c3)[nH]2)c(OC)c1 [Compound 22, {3-[5-(2,4-Dimethoxy-phenylamino)-4H-[1,2,4]triazol-3-yl]-pyridin-2-yl}-(1H-indazol-6-yl)-amine] | 24 |
| COc1cccc(Nc2nnc(-c3cccnc3NCc3cc(OC)cc(OC)c3)[nH]2)c1 [Compound 23, (3,5-Dimethoxy-benzyl)-{3-[5-(3-methoxy-phenylamino)-4H-[1,2,4]triazol-3-yl]-pyridin-2-yl}-amine] | 22 |
| COc1cc(CNc2ncccc2-c2nnc(Nc3ccc(OC)cc3OC)[nH]2)cc(OC)c1 [Compound 24, (3,5-Dimethoxy-benzyl)-{3-[5-(2,4-dimethoxy-phenylamino)-4H-[1,2,4]triazol-3-yl]-pyridin-2-yl}-amine] | 20 |
| COc1ccc(Nc2nnc(-c3cccnc3NCc3cccnc3)[nH]2)cc1 [Compound 26, {3-[5-(4-Methoxy-phenylamino)-4H-[1,2,4]triazol-3-yl]-pyridin-2-yl}-pyridin-3-ylmethyl-amine] | 20 |
| COc1ccc(Nc2nnc(-c3cccnc3NCc3cccnc3)[nH]2)c(OC)c1 [Compound 27, {3-[5-(2,4-Dimethoxy-phenylamino)-4H-[1,2,4]triazol-3-yl]-pyridin-2-yl}-pyridin-3-ylmethyl-amine] | 20 |
| COc1ccc(OC)c(Nc2nnc(-c3cccnc3NCc3cccnc3)[nH]2)c1 [Compound 28, {3-[5-(2,5-Dimethoxy-phenylamino)-4H-[1,2,4]triazol-3-yl]-pyridin-2-yl}-pyridin-3-ylmethyl-amine] | 22 |
| COc1cccc(Nc2nnc(-c3cccnc3NCCCn3ccnc3)[nH]2)c1 [Compound 29, (3-Imidazol-1-yl-propyl)-{3-[5-(3-methoxy-phenylamino)-4H-[1,2,4]triazol-3-yl]-pyridin-2-yl}-amine] | 28 |
| c1cnc(NCc2ccc3c(c2)OCCO3)c(-c2nnc(Nc3ccc4c(c3)OCO4)[nH]2)c1 [Compound 34, {3-[5-(Benzo[1,3]dioxol-5-ylamino)-4H-[1,2,4]triazol-3-yl]-pyridin-2-yl}-(2,3-dihydro-benzo[1,4]dioxin-6-ylmethyl)-amine] | 69 |
| COc1cccc(Nc2nnc(-c3cccnc3NCc3ccc4c(c3)OCCO4)[nH]2)c1 [Compound 35, (2,3-Dihydro-benzo[1,4]dioxin-6-ylmethyl)-{3-[5-(3-methoxy-phenylamino)-4H-[1,2,4]triazol-3-yl]-pyridin-2-yl}-amine] | 66 |
| c1cnc(NCc2ccc3c(c2)CCO3)c(-c2nnc(Nc3ccc4c(c3)OCO4)[nH]2)c1 [Compound 36, {3-[5-(Benzo[1,3]dioxol-5-ylamino)-4H-[1,2,4]triazol-3-yl]-pyridin-2-yl}-(2,3-dihydro-benzofuran-5-ylmethyl)-amine] | 67 |
| COc1cccc(Nc2nnc(-c3cccnc3NCc3ccc4c(c3)CCO4)[nH]2)c1 [Compound 37, (2,3-Dihydro-benzofuran-5-ylmethyl)-{3-[5-(3-methoxy-phenylamino)-4H-[1,2,4]triazol-3-yl]-pyridin-2-yl}-amine] | 91 |
| c1cncc(CCNc2ncccc2-c2nnc(Nc3ccc4c(c3)OCCO4)[nH]2)c1 [Compound 41, {3-[5-(2,3-Dihydro-benzo[1,4]dioxin-6-ylamino)-4H-[1,2,4]triazol-3-yl]-pyridin-2-yl}-(2-pyridin-3-yl-ethyl)-amine] | 23 |
| COc1cccc(Nc2nnc(-c3cccnc3NCC3COCCO3)[nH]2)c1 (centres unmarked) [Compound 46, [1,4]Dioxan-2-ylmethyl-{3-[5-(3-methoxy-phenylamino)-4H-[1,2,4]triazol-3-yl]-pyridin-2-yl}-amine] | 25 |
| c1cnc(NCC2COCCO2)c(-c2nnc(Nc3ccc4c(c3)OCO4)[nH]2)c1 (centres unmarked) [Compound 47, {3-[5-(Benzo[1,3]dioxol-5-ylamino)-4H-[1,2,4]triazol-3-yl]-pyridin-2-yl}-[1,4]dioxan-2-ylmethyl-amine] | 24 |
| O=C1CCCN1CCCNc1ncccc1-c1nnc(Nc2ccc3c(c2)OCCO3)[nH]1 [Compound 48, 1-(3-{3-[5-(2,3-Dihydro-benzo[1,4]dioxin-6-ylamino)-4H-[1,2,4]thiazol-3-yl]-pyridin-2-ylamino}-propyl)-pyrrolidin-2-one] | 21 |
| COc1cccc(CNc2ncccc2-c2nnc(Nc3ccc4c(c3)OCCO4)[nH]2)c1 [Compound 52, {3-[5-(2,3-Dihydro-benzo[1,4]dioxin-6-ylamino)-4H-[1,2,4]triazol-3-yl]-pyridin-2-yl}-(3-methoxy-benzyl)-amine] | 35 |
| c1cnc(NCC2COCCO2)c(-c2nnc(Nc3ccc4c(c3)OCCO4)[nH]2)c1 (centres unmarked) [Compound 55, {3-[5-(2,3-Dihydro-benzo[1,4]dioxin-6-ylamino)-4H-[1,2,4]triazol-3-yl]-pyridin-2-yl}-[1,4]dioxan-2-ylmethyl-amine] | 23 |
| COc1ccc(CNc2nnc(-c3cccnc3NCCCN3CCCC3=O)[nH]2)cc1 [Compound 57, 1-(3-{3-[5-(4-Methoxy-benzylamino)-4H-[1,2,4]triazol-3-yl]-pyridin-2-ylamino}-propyl)-pyrrolidin-2-one] | 22 |
| COc1cc(Nc2ncccc2-c2nnc(Nc3cccc(NCc4ccc5c(c4)OCO5)c3)[nH]2)cc(OC)c1 [Compound 60, N-Benzo[1,3]dioxol-5-ylmethyl-N′-{5-[2-(3,5-dimethoxy-phenylamino)-pyridin-3-yl]-4H-[1,2,4]triazol-3-yl}-benzene-1,3-diamine] | 99 |
| COc1cc(Nc2ncccc2-c2nnc(Nc3cccc(N)c3)[nH]2)cc(OC)c1 [Compound 60b, N-{5-[2-(3,5-dimethoxy-phenylamino)-pyridin-3-yl]-4H-[1,2,4]triazol-3-yl}-benzene-1,3-diamine] | 39 |
| COc1cc(Nc2ncccc2-c2nnc(Nc3cccc(NCC4CCOCC4)c3)[nH]2)cc(OC)c1 [Compound 61, N-{5-[2-(3,5-Dimethoxy-phenylamino)-pyridin-3-yl]-4H-[1,2,4]triazol-3-yl}-N′-(tetrahydro-pyran-4-ylmethyl)-benzene-1,3-diamine] | 24 |
| COc1cc(Nc2ncccc2-c2nnc(Nc3cccc(NCc4ccco4)c3)[nH]2)cc(OC)c1 [Compound 62, N-{5-[2-(3,5-Dimethoxy-phenylamino)-pyridin-3-yl]-4H-[1,2,4]triazol-3-yl}-N′-furan-2-ylmethyl-benzene-1,3-diamine] | 73 |
| COc1cc(Nc2ncccc2-c2nnc(Nc3cccc(NS(=O)(=O)c4ccc5c(c4)CCO5)c3)[nH]2)cc(OC)c1 [Compound 63, 2,3-Dihydro-benzofuran-5-sulfonic acid (3-{5-[2-(3,5-dimethoxy-phenylamino)-pyridin-3-yl]-4H-[1,2,4]triazol-3-ylamino}-phenyl)-amide] | 24 |
| COc1cc(Nc2ncccc2-c2nnc(Nc3cccc(NS(=O)(=O)c4ccc5c(c4)OCCO5)c3)[nH]2)cc(OC)c1 [Compound 64, 2,3-Dihydro-benzo[1,4]dioxine-6-sulfonic acid (3-{5-[2-(3,5-dimethoxy-phenylamino)-pyridin-3-yl]-4H-[1,2,4]triazol-3-ylamino}-phenyl)-amide] | 29 |
| COc1cc(Nc2ncccc2-c2nc(Nc3ccc4c(c3)OCO4)n(C)n2)cc(OC)c1 [Compound 65, {3-[5-(Benzo[1,3]dioxol-5-ylamino)-1-methyl-1H-[1,2,4]triazol-3-yl]-pyridin-2-yl}-(3,5-dimethoxy-phenyl)-amine] | 77 |

Source: US20090048301A1 (IMCLONE SYSTEMS INCORPORATED, priority 2003, published 2009)
